Key:
G1 APOL1 = biological target: T1, G1 APOL1 (Homo sapiens, UniProt O14791, I384M/S342G); test: Acute APOL1 Thallium Assay with inducible stable clones of HEK 293 cells; assay type: cell-based; details: HEK 293 T-Rex inducible stable clone expressing G1 APOL1; read-out: Thallium Assay (IC50)
T1 construct: expressed in transfected cells
T1 sequence (O14791 28-398 S342G/I384M): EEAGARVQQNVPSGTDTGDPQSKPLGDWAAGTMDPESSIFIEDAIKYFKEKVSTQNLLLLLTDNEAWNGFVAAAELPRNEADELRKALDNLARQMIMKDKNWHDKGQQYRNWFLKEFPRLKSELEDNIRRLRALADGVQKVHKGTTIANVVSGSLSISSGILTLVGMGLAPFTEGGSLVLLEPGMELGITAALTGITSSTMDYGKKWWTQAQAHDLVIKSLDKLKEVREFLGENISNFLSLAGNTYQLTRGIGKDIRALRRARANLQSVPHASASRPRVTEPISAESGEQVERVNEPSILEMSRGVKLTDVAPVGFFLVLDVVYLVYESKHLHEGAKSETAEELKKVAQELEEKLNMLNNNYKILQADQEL
Method in brief: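 APOL1 pore function was measured as thallium influx, detected by a Tl+-sensitive fluorescent dye loaded as AM ester, on a FLIPR Tetra after Tl+ addition. Cells were HEK T-Rex G1 APOL1 clone DC3.25, 26,000 per well, induced with tetracycline at plating in Opti-MEM assay medium.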

APOL1 G1 Protein = biological target: T2, APOL1 G1 Protein (Homo sapiens, UniProt O14791, I384M/S342G); test: Trypanosoma brucei brucei lysis assay using APOL1 recombinant protein (AlamarBlue viability); assay type: cell-based; details: Trypanosoma brucei brucei lysis with recombinant APOL1 protein
T2 sequence (O14791 28-398 S342G/I384M): T1 sequence (O14791 28-398 S342G/I384M)

SMILES	IC50 (G1 APOL1) [nM]	IC50 (APOL1 G1 Protein) [nM]
N[C@H]1CC[C@H](c2c(-c3ccc(F)cc3)[nH]c3c(F)cc(F)cc32)CC1 (single isomer, unassigned) [Compound 434, Trans-4-[5,7-difluoro-2-(4-fluorophenyl)-1H-indol-3-yl]cyclohexanamine]	250 to 1000	< 250
NC1CC(c2c(-c3ccc(F)cc3)[nH]c3c(F)cccc23)C1 (stereo not shown) [Compound 6, 3-[7-fluoro-2-(4-fluorophenyl)-1H-indol-3-yl]cyclobutanamine]	250 to 1000	< 250
O=C(CO)NC1CC(c2c(-c3ccc(F)cc3)[nH]c3c(F)cc(F)cc23)C1 (stereo not shown) [Compound 15, N-[3-[5,7-difluoro-2-(4-fluorophenyl)-1H-indol-3-yl]cyclobutyl]-2-hydroxy-acetamide]	< 250	250 to 1000
CC(C)(O)CC(=O)NC1CC(c2c(-c3ccc(F)cc3)[nH]c3c(F)cc(F)cc23)C1 (stereo not shown) [Compound 16, N-[3-[5,7-difluoro-2-(4-fluorophenyl)-1H-indol-3-yl]cyclobutyl]-3-hydroxy-3-methyl-butanamide]	250 to 1000	250 to 1000
CC(=O)NC1CC(c2c(-c3ccc(F)cc3)[nH]c3c(F)cc(F)cc23)C1 (stereo not shown) [Compound 17, N-[3-[5,7-difluoro-2-(4-fluorophenyl)-1H-indol-3-yl]cyclobutyl]acetamide]	250 to 1000	250 to 1000
COCC(=O)NC1CC(c2c(-c3ccc(F)cc3)[nH]c3c(F)cc(F)cc23)C1 (stereo not shown) [Compound 18, N-[3-[5,7-difluoro-2-(4-fluorophenyl)-1H-indol-3-yl]cyclobutyl]-2-methoxy-acetamide]	250 to 1000	250 to 1000
O[C@H]1C[C@H](c2c(-c3ccc(F)cc3)[nH]c3c(F)cc(F)cc32)C1 [Compound 174, (1r,3r)-3-(5,7-difluoro-2-(4-fluorophenyl)-1H-indol-3-yl)cyclobutan-1-ol]	< 250	< 250
Cc1cccc(-c2[nH]c3c(F)cc(F)cc3c2C2CC(CN)C2)c1 (stereo not shown) [Compound 181]	< 250	< 250
O=C(CO)NCC1CC(c2c(-c3ccc(F)cc3)[nH]c3c(F)cc(F)cc23)C1 (stereo not shown) [Compound 214]	250 to 1000	250 to 1000
OCCNCC1CC(c2c(-c3ccc(F)cc3)[nH]c3c(F)cc(F)cc23)C1 (stereo not shown) [Compound 374, 2-[[3-[5,7-difluoro-2-(4-fluorophenyl)-1H-indol-3-yl]cyclobutyl]methylamino]ethanol]	< 250	< 250
COCCNCC1CC(c2c(-c3ccc(F)cc3)[nH]c3c(F)cc(F)cc23)C1 (stereo not shown) [Compound 375]	< 250	< 250
OCC1CC(c2c(-c3ccc(F)cc3)[nH]c3c(F)cc(F)cc23)C1 (stereo not shown) [Compound 424, [3-[5,7-difluoro-2-(4-fluorophenyl)-1H-indol-3-yl]cyclobutyl]methanol]	< 250	< 250
CC1(CN)CC(c2c(-c3ccc(F)cc3)[nH]c3c(F)cc(F)cc23)C1 (stereo not shown) [Compound 426, [3-[5,7-difluoro-2-(4-fluorophenyl)-1H-indol-3-yl]-1-methyl-cyclobutyl]methanamine]	250 to 1000	< 250
NCC1(O)CC(c2c(-c3ccc(F)cc3)[nH]c3c(F)cc(F)cc23)C1 (stereo not shown) [Compound 427, 1-(aminomethyl)-3-[5,7-difluoro-2-(4-fluorophenyl)-1H-indol-3-yl]cyclobutanol]	250 to 1000	< 250
NC1CC2(C1)CC(c1c(-c3ccc(F)cc3)[nH]c3c(F)cc(F)cc13)C2 (stereo not shown) [Compound 432, 6-[5,7-difluoro-2-(4-fluorophenyl)-1H-indol-3-yl]spiro[3.3]heptan-2-amine]	> 1000	< 250
NC1CCC(c2c(-c3ccc(F)cc3)[nH]c3c(F)cc(F)cc23)CC1 (stereo not shown) [Compound 433, 4-[5,7-difluoro-2-(4-fluorophenyl)-1H-indol-3-yl]cyclohexanamine]	< 250	< 250
O=C(C1CCO1)N1CCC(Cc2c(-c3ccc(F)cc3)[nH]c3c(F)cc(F)cc23)C1 (stereo not shown) [Compound 443, [3-[[5,7-difluoro-2-(4-fluorophenyl)-1H-indol-3-yl]methyl]pyrrolidin-1-yl]-(oxetan-2-yl)methanone]	250 to 1000	250 to 1000
CC(=O)N1CCC(Cc2c(-c3ccc(F)cc3)[nH]c3c(F)cc(F)cc23)C1 (stereo not shown) [Compound 444, 1-(3-((5,7-difluoro-2-(4-fluorophenyl)-1H-indol-3-yl)methyl)pyrrolidin-1-yl)ethan-1-one]	> 1000	250 to 1000

Further lines, with some results ahead:

IC50 (G1 APOL1) [nM]	SMILES	IC50 (APOL1 G1 Protein) [nM]
< 250	NCC1CC(c2c(-c3ccc(F)cc3)[nH]c3c(F)cc(F)cc23)C1 (mixture of isomers) [Compound 186, (3-(5,7-difluoro-2-(4-fluorophenyl)-1H-indol-3-yl)cyclobutyl)methanamine]	< 250
< 250	NCC1CC(c2c(-c3ccc(OC(F)(F)F)cc3)[nH]c3c(F)cc(F)cc23)C1 (stereo not shown) [Compound 180]	< 250
< 250	NCC1CC(c2c(-c3ccc(OC(F)F)cc3)[nH]c3c(F)cc(F)cc23)C1 (stereo not shown) [Compound 182]	< 250
< 250	COc1ccc(-c2[nH]c3c(F)cc(F)cc3c2C2CC(CN)C2)cc1 (stereo not shown) [Compound 183]	< 250
< 250	Cc1ccc(-c2[nH]c3c(F)cc(F)cc3c2C2CC(CN)C2)cc1 (stereo not shown) [Compound 184]	< 250
< 250	N#Cc1ccc(-c2[nH]c3c(F)cc(F)cc3c2C2CC(CN)C2)cc1 (stereo not shown) [Compound 185]	< 250
< 250	NC[C@H]1C[C@@H](c2c(-c3ccc(F)cc3)[nH]c3c(F)cc(F)cc32)C1 [Compound 187, ((1s,3s)-3-(5,7-difluoro-2-(4-fluorophenyl)-1H-indol-3-yl)cyclobutyl)methanamine]	< 250
< 250	NC[C@H]1C[C@H](c2c(-c3ccc(F)cc3)[nH]c3c(F)cc(F)cc32)C1 [Compound 188, ((1r,3r)-3-(5,7-difluoro-2-(4-fluorophenyl)-1H-indol-3-yl)cyclobutyl)methanamine]	< 250
